The structures appear in SMILES notation.

Series [1] deals with dipeptidyl peptidase (DP IV) (UniProt P27487). As to the kind of experiment: Determination of IC50 against DP IV (hydrolysis of Gly-Pro-pNA). It is filed as biochemical, porcine kidney or recombinant human. The settings on record: compounds obtained by preparative synthesis. On the procedure:
Determination of IC50 Against DP IV
Substances are screened for inhibition of dipeptidyl peptidase (DP IV) by their ability to inhibit the hydrolysis of the DP IV specific substrate Glycyl-Prolyl-4-Nitroanilide (Gly-Pro-pNA). All compounds are diluted in DMSO and IC50 will be determined with 11 serial dilutions (1:2) starting with an final concentration of 100 μM. The final DMSO concentration in the assay is 5% (v/v). The method was automated using a Tecan Genesis Freedom liquid handler and a Genius Pro (Tecan) microplate reader.
A stock solution of 0.102 M HEPES is prepared. Ionic strength (I=0.32) is adjusted by KCl and pH (pH 7.6) by KOH.
2.16 mM solution of Gly-Pro-pNA in deionized water is prepared.
All samples are dissolved in DMSO preparing a 10 mM stock solution.
DP IV from porcine kidney (pDP IV) or recombinant human DP IV (rhDP IV) is diluted in HEPES buffer to a final activity of approximately 40-50 μU*ml^−1. The DP IV is stored in a cooling rack (4° C.) on the liquid handler.
The assay may becarried out at room temperature using Freedom liquid handler connected with a Genios Pro microplate reader. Each sample is measured in duplicate. Each sample stock solution is prediluted with DMSO in a ratio of 1:5 in a polypropylen 96-well plate. From this predilution 10 serial (1:2) dilutions in DMSO are prepared. 13.5 μl of the 11 DMSO dilutions and DMSO alone are transferred to the measurement microplate (duplicates) and 86.5 μl water, 100 μl HEPES buffer and 50 μl substrate solution are added to each well. The enzymatic reaction is started by addition of 20 μl enzyme solution to each well, and then the microplate is immediately transferred to the microplate reader.
After short mixing (20 s) the release of 4-Nitroanilin (pNA) is monitored at 405 nm for 30 cycles (approx. 18 min).
Post assay calculations are done by the Magellan (Tecan) and Graphit Software. The linear slopes are calculated for each well and averaged for the duplicates. The residue activities are calculated in relation to a sample containing only solvent instead of inhibitor and expressed in %. Residue activities are plotted against the log of inhibitor concentrations and IC50 is calculated by an 4-parameter fitting ranging from 0 to 100%.

Series [2] has as its target T1, DP IV (Homo sapiens, UniProt P27487). As to the kind of experiment: Ki and inhibition type, DP IV. It is filed as biochemical. As to conditions: compounds obtained by preparative synthesis. On the procedure:
Measurement of DP IV activities for Ki determination is carried out as described for IC50. For Ki determination samples were analysed in triplicates. 7 serial dilutions of the inhibitor (range calculated from the IC50 determination) in water are analyzed with 4 serial dilutions of the substrate.
Data are analysed by non-linear regression to the inhibitor equations using Graphit software. Ki-value and inhibition type are determined using the inhibitor equation (competitive, partiell competitive, non-competitive) which gives the best fitting results. […]

A further series addresses DPII (Homo sapiens, UniProt Q9UHL4). As to the kind of experiment: DPII assay. It is filed as biochemical. The settings on record: for Selectivity DPII(IC50)/DPIV(Ki): ratio IC50 DPII / Ki DP IV. The protocol:
(§1) Determination of IC50 values for DPII and DP9 are done similarly as described for DP IV.
For DPII instead of the HEPES buffer a 0.2 M sodium acetate buffer pH 5.5 is used. As substrate Gly-Pro-AMC is used in a final concentration of 1 mM.

In series [3] the test system is liver cell carcinoma cell line Hep-G2. As to the kind of experiment: Cytotoxicity screening and LD50 determination on Hep-G2 (LDH, CytoTox-One). It is filed as cell-based. As to conditions: for Cytotox 100 μM (%) HEPG2 / Viability 100 μM (%) HEP-G2: 24 h; for Cytotox 100 μM (%) HEPG2: LDH activity in cell culture media, lysed untreated cells = 100%; for Viability 100 μM (%) HEP-G2: LDH of lysed cells, untreated control = 100%; for Observed cytotox: Hep-G2, observation of the cells. On the procedure: Cytotoxicity of the compounds may be screened using the liver cell carcinoma cell line Hep-G2.
(§2) After 24 h of cultivation in a 96 well plate (50 000 cells/well) compounds (dissolved in DMSO) are added and cytotoxicity and vitality of the cells are analysed after another 24 h of cultivation using the CytoTox-One Homogenoeous membrane toxicity assay (Promega).
Three concentrations (100 μM, 2 μM, 40 nM) of each compound are analysed in triplicates. The final DMSO concentration was 1%.
(§3) For cytotoxicity the LDH activity in the cell culture media after 24 h of incubation are analysed. The untreated control is set to 0% cytotoxicity. For the 100% value LDH activity of lysed untreated cells are analysed.
(§4) For viability cell culture media are removed from the cells and all cells are lysed using the lysis buffer. LDH activity is determined and untreated control is set to 100% viability.
(§5) For determination of LD50 the liver carcinoma cell line HEP-G2 and the neuroblastoma cell line SY5Y may be used. The effect of 8 serial dilutions of the compounds (highest concentration 1 mM) is investigated as described above.
The cytotoxicity of certain example compounds (in each case prepared by preparative synthesis) was screened using Hep-G2 cells. Compounds were tested in concentrations of 100 μM, 2 μM and 40 nM.

Series [4] deals with T1, DP IV. As to the kind of experiment: DP IV inhibition IC50, parallel-synthesis compounds tested directly following synthesis (without purification). In kind it is biochemical. More on the design: IC50 DP4; other: tested directly following parallel synthesis, without purification; compounds of formula (Ib) from parallel synthesis, tested directly following synthesis. As to conditions: DP IV inhibition; compounds of formula (Ib) from parallel synthesis, tested directly following synthesis (without purification); read-out: IC50. The method in brief:
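IC50 came from a 4-parameter fit of residual activity (linear 405 nm slopes for pNA release over ~18 min, relative to solvent-only wells). Gly-Pro-pNA was the substrate, cleaved by porcine kidney or recombinant human DP IV at room temperature in HEPES with 5% DMSO; duplicate 1:2 series started at 100 μM final.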

In a further series the target is DP9 (Homo sapiens, UniProt Q86TI2). As to the kind of experiment: DP9 assay. In kind it is biochemical. As to conditions: for IC50: Gly Pro-AMC 0.25 mM; for Selectivity DP9(IC50)/DPIV(Ki): ratio IC50 DP9 / Ki DP IV. The protocol: as §1
Sequence of DP9 (Q86TI2 whole entry, species assumed): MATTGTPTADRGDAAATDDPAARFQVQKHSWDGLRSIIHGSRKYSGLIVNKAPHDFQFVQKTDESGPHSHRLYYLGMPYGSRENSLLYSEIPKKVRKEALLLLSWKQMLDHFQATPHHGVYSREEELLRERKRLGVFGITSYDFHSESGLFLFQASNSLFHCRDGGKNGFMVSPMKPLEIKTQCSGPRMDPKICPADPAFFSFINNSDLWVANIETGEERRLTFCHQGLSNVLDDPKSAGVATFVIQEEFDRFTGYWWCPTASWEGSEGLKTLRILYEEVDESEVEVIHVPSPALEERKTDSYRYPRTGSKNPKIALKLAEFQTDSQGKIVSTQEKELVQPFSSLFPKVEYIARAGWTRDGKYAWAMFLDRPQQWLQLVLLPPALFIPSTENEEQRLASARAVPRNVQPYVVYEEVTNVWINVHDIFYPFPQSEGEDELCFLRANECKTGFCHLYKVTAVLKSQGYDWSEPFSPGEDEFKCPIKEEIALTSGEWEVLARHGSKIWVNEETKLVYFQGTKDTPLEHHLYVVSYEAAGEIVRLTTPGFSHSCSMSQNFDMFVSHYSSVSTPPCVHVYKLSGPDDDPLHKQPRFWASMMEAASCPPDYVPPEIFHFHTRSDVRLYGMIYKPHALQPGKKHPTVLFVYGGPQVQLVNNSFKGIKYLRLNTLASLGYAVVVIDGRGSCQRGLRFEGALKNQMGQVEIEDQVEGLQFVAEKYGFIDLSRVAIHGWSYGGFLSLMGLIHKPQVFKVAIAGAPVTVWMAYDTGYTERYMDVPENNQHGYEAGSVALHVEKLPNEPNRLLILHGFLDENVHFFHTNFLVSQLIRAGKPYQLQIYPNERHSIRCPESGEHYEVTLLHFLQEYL
For DP9 Gly Pro-AMC is used as substrate in a final concentration of 0.25 mM.

Series [5] concerns neuroblastoma cell line SY5Y. As to the kind of experiment: LD50 determination on SY5Y (LDH). As to conditions: 8 serial dilutions, highest concentration 1 mM. In kind it is cell-based. On the procedure:
as §2, §3, §4, §5

[6] abbreviates: sodium acetate buffer pH 5.5, Gly-Pro-AMC 1 mM.
The mark [7] stands for this setting: 8 serial dilutions, highest concentration 1 mM.

T1 sequence (P27487 whole entry): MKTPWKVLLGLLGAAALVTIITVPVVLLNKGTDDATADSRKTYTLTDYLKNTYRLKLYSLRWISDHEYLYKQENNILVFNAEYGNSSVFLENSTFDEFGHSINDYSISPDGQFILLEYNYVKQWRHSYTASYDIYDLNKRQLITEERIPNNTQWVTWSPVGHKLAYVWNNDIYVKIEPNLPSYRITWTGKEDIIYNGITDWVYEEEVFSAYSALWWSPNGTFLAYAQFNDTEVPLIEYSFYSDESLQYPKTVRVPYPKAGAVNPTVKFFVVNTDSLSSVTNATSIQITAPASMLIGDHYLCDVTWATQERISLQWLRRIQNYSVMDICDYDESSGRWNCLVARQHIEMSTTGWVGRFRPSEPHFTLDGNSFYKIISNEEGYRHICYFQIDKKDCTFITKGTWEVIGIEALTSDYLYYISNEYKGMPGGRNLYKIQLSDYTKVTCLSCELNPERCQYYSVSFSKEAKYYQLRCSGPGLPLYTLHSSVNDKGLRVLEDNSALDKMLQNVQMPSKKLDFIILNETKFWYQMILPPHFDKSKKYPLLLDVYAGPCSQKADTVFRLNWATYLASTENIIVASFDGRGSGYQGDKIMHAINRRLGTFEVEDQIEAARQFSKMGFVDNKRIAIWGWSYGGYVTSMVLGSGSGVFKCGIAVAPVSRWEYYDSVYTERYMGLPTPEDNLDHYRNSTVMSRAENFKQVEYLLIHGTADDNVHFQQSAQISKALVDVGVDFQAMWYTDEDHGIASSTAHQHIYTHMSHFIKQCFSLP

On to `CC(C)(C)Cn1cnc(-c2ccc(Cl)cc2Cl)c1CN` [Example 11b, C-[5-(2,4-dichloro-phenyl)-3-(2,2-dimethyl-propyl)-3H-imidazol-4-yl]-methylamine], for which the IC50 is 2580 nM in series [1], 83800 nM against DPII (setting [6]) and 6400 nM on DP IV [4]. Moreover, on DP IV [2], the Ki was 57.5 nM. Moreover, at DPII, the “Selectivity DPII(IC50)/DPIV(Ki)” value is 1,457. In addition, the “Cytotox 100 μM (%) HEPG2” value in series [3] (100 μM) turned out to be 4.6%. Moreover, the “Viability 100 μM (%) HEP-G2” value in series [3] (100 μM) amounted to 113.1%. In addition, the “cytotoxic effects (summary in words)” value in series [3] (100 μM, Hep-G2) was “No cytotoxic effects”.

`NCc1c(-c2ccc(Cl)cc2Cl)ncn1CCc1ccccc1Cl` [Example 21b, C-[3-[2-(2-chloro-phenyl)-ethyl]-5-(2,4-dichloro-phenyl)-3H-imidazol-4-yl]-methylamine]: in series [1], the IC50 is 514 nM. Further, the affinity on DP IV [2], expressed as Ki, was 29.4 nM. In addition, on DPII, the affinity corresponds to a Ki of 3180 nM and the “Selectivity DPII(IC50)/DPIV(Ki)” value was found to be 157. This molecule registered an IC50 against DPII (setting [6]) of 4620 nM. For the same molecule, on DP9, the Ki was determined as 925 nM; the midpoint of inhibition, the IC50, lay at 1280 nM; the “Selectivity DP9(IC50)/DPIV(Ki)” value stood at 44. In series [3] (100 μM), the “Cytotox 100 μM (%) HEPG2” value is recorded as 97.1%, the “Viability 100 μM (%) HEP-G2” value was found to be 9.8% and the Observed cytotox stood at 100% lysis. The IC50 on DP IV [4] stood at 1900 nM.

`CC(C)(C)CCn1cnc(-c2ccc(Cl)cc2Cl)c1CN` [Example 23b, C-[5-(2,4-dichloro-phenyl)-3-(3,3-dimethyl-butyl)-3H-imidazol-4-yl]-methylamine] showed an IC50 in series [1] of 903 nM. In addition, the Ki at DP IV [2] came out at 23.6 nM. In addition, on DP9, the IC50 is 56100 nM and the “Selectivity DP9(IC50)/DPIV(Ki)” value was 2,377. In series [3] (100 μM), the “Cytotox 100 μM (%) HEPG2” value came out at 56.8%; the “Viability 100 μM (%) HEP-G2” value worked out at 98.6%; the Observed cytotox was 50% lysis, 100%. In addition, the IC50 at DP IV [4] stood at 8200 nM.

As to `NCc1c(-c2ccc(Cl)cc2Cl)ncn1CCCCCO` [Example 38b, 5-[5-aminomethyl-4-(2,4-dichloro-phenyl)-imidazol-1-yl]-pentan-1-ol], the IC50 in series [1] turned out to be 848 nM; on DPII (setting [6]) it was 60600 nM; against DP9 it was 46500 nM; on DP IV [4], 1900 nM. On DP IV [2], this molecule yielded a Ki of 41.1 nM. The “Selectivity DPII(IC50)/DPIV(Ki)” value at DPII is given as 1,474. The “Selectivity DP9(IC50)/DPIV(Ki)” value on DP9 was 1,131. In series [3] (100 μM), the “Cytotox 100 μM (%) HEPG2” value came out at 0%. Besides, the “Viability 100 μM (%) HEP-G2” value in series [3] (100 μM) is on record as 106.7%.

As for `NCc1c(-c2ccc(Cl)cc2Cl)ncn1CCCn1ccnc1` [Example 104b, C-[5-(2,4-dichloro-phenyl)-3-(3-imidazol-1-yl-propyl)-3H-imidazol-4-yl]-methylamine], the IC50 in series [1] is 408 nM; at DPII (values >1e−4 are extrapolated values), 277000 nM; against DP9 it was 17500 nM; at DP IV [4], 5500 nM. The molecule also had an inhibition constant Ki on DP IV [2] of 30.2 nM. Further, at DPII, the “Selectivity DPII(IC50)/DPIV(Ki)” value is on record as 9,172. Also, the “Selectivity DP9(IC50)/DPIV(Ki)” value at DP9 is 579. The “Cytotox 100 μM (%) HEPG2” value in series [3] (100 μM) is given as 2.9%. In addition, in series [3] (100 μM), the “Viability 100 μM (%) HEP-G2” value came to 104.1%.

`NCc1c(-c2ccc(Cl)cc2Cl)ncn1Cc1ccc2c(c1)OCO2` [Example 125b, C-[3-benzo[1,3]dioxol-5-ylmethyl-5-(2,4-dichloro-phenyl)-3H-imidazol-4-yl]-methylamine] had an IC50 in series [1] of 371 nM. Moreover, the Ki on DP IV [2] is 38 nM. In addition, the “Selectivity DPII(IC50)/DPIV(Ki)” value on DPII came to 471. On DPII (setting [6]), it took 17900 nM to reach half-maximal inhibition (IC50). At DP9, the IC50 was determined as 74700 nM and the “Selectivity DP9(IC50)/DPIV(Ki)” value is on record as 1,966. Also, in series [3] (100 μM), the “Cytotox 100 μM (%) HEPG2” value is 10.6% and the “Viability 100 μM (%) HEP-G2” value was found to be 88.9%.

`NCc1c(-c2ccc(Cl)cc2Cl)ncn1Cc1ccccc1OC(F)(F)F` [Example 129b, C-[5-(2,4-dichloro-phenyl)-3-(2-trifluoromethoxy-benzyl)-3H-imidazol-4-yl]-methylamine]: in series [1], inhibition was half-maximal at 70 nM (IC50). Also, the Ki at DP IV [2] was found to be 6.54 nM. Besides, on DPII, the Ki amounted to 4420 nM and the “Selectivity DPII(IC50)/DPIV(Ki)” value amounted to 237. Further, on DPII (setting [6]), it took 1550 nM to reach half-maximal inhibition (IC50). In addition, on DP9, the midpoint of inhibition, the IC50, lay at 53200 nM and the “Selectivity DP9(IC50)/DPIV(Ki)” value is given as 8,135. For the same molecule, in series [3] (setting [7]), the “LD50 Viability HEP-G2” value worked out at 0.15 mM and the “LD50 cytotox HEP-G2” value is 0.16 mM. Also, in series [5], the “LD50 Viability SY5Y” value was 0.13 mM and the “LD50 cytotox SY5Y” value was 0.21 mM.

A word on the IC50: it is the concentration needed to halve the response being measured. Broadly, the Ki is a measure of affinity in units of concentration, obtained from inhibition or displacement.
